The record followed here is ChEMBL document CHEMBL1153442, “Synthesis and in vitro evaluation of sulfonamide isatin Michael acceptors as small molecule inhibitors of caspase-6” (J Med Chem, 2009).

The target of experiment [1] is Caspase-8 (Homo sapiens, UniProt Q14790). Nature of the experiment: Inhibition of human recombinant caspase 8 assessed as accumulation of fluorogenic product by fluorometric assay.
The target in experiment [2] is T1, Caspase-6 (Homo sapiens, UniProt P55212).
T1 sequence (P55212 whole entry): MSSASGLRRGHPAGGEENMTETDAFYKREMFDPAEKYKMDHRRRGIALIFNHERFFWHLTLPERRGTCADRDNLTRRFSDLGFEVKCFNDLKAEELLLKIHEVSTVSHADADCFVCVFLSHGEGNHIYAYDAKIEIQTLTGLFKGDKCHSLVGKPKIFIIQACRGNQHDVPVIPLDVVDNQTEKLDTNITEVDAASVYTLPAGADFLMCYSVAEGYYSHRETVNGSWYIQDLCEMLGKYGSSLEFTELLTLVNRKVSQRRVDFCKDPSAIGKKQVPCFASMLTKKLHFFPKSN
Nature of the experiment: Inhibition of human recombinant caspase 6 assessed as accumulation of fluorogenic product by fluorometric assay.

For experiment [3], the target named is T2, Caspase-7 (Homo sapiens, UniProt P55210).
T2 sequence (P55210 whole entry): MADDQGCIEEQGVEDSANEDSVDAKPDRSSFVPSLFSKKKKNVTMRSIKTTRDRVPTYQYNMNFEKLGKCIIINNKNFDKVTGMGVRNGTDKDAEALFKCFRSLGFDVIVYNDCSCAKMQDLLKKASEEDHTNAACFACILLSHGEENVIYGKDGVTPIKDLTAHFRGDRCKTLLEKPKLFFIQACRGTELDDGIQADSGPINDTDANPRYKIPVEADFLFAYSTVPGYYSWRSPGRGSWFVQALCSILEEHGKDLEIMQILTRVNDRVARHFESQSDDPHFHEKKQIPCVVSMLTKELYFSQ
Nature of the experiment: Inhibition of human recombinant caspase 7 assessed as accumulation of fluorogenic product by fluorometric assay.

Experiment [4] addresses T3, Caspase-1 (Homo sapiens, UniProt P29466).
T3 sequence (P29466 whole entry): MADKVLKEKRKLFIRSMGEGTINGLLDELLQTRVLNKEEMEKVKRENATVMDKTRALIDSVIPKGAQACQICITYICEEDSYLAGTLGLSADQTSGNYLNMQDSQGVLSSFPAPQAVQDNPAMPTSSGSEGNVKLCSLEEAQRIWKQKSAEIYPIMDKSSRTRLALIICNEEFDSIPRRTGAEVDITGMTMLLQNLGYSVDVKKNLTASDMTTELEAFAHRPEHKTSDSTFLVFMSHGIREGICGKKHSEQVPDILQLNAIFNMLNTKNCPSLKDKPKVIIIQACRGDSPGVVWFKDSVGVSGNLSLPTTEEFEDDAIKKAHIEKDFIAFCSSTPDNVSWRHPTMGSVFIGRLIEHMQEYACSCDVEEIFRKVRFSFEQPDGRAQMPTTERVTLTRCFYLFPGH
Nature of the experiment: Inhibition of human recombinant caspase 1 assessed as accumulation of fluorogenic product by fluorometric assay.

In experiment [5] the target is T4, Caspase-3 (Homo sapiens, UniProt P42574).
T4 sequence (P42574 whole entry): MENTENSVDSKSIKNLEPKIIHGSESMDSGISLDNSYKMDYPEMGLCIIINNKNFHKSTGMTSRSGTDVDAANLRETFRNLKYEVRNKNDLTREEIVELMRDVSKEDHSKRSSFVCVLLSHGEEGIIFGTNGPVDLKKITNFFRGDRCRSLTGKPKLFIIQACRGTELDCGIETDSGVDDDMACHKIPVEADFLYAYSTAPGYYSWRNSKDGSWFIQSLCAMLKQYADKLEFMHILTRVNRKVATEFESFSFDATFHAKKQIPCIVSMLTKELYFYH
Nature of the experiment: Inhibition of human recombinant caspase 3 assessed as accumulation of fluorogenic product by fluorometric assay.

The species named for experiment [6] is Homo sapiens. Nature of the experiment: Selectivity for human recombinant caspase 3 over human recombinant caspase 6.

Structures are written as SMILES. Some results are limits rather than exact numbers.

Chain of Caspase-8 (Q14790 217-374 limits assumed): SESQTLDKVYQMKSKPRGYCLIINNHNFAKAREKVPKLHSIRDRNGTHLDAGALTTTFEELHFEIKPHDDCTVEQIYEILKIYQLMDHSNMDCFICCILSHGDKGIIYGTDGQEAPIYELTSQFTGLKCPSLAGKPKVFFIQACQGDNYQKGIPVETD
Chain of Caspase-8 (Q14790 385-479 limits assumed): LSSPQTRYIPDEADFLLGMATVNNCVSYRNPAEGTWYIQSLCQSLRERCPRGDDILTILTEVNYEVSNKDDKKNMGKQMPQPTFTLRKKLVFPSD

Turning to `O=C1Nc2ccc(S(=O)(=O)N3CCOCC3)cc2C1=O`, the IC50 was greater than 50000 nM in experiment [1]; greater than 20000 nM in experiment [2]; greater than 20000 nM in experiment [3]; greater than 25000 nM in experiment [4]; greater than 20000 nM in experiment [5].
For `N#CC(C#N)=C1C(=O)N(Cc2ccc(Cl)c(Cl)c2)c2ccc(S(=O)(=O)N3CCC3)cc21`, the IC50 in experiment [1] was greater than 50000 nM; in experiment [2], 280 nM; in experiment [3], 340 nM; in experiment [4] it was greater than 10000 nM; in experiment [5], 365 nM.
Take `CC(=O)N[C@@H](CC(=O)O)C(=O)N[C@@H](CCC(=O)O)C(=O)N[C@H](C(=O)N[C@H](C=O)CC(=O)O)C(C)C`: in experiment [3], the IC50 was 2.95 nM.
Turning to `O=C1C(=O)N(Cc2ccccc2)c2ccc(S(=O)(=O)N3CCSCC3)cc21`, the IC50 in experiment [1] is greater than 50000 nM; in experiment [2], 12800 nM; in experiment [3] it was 1480 nM; in experiment [4], greater than 10000 nM; in experiment [5], 1030 nM. In addition, the fold change (FC) in experiment [6] stood at 10.
As for `N#CC(C#N)=C1C(=O)N(Cc2ccc(Cl)c(Cl)c2)c2ccc(S(=O)(=O)N3CCSCC3)cc21`, the IC50 is greater than 50000 nM in experiment [1]; 230 nM in experiment [2]; 5100 nM in experiment [3]; 5350 nM in experiment [4]; 1990 nM in experiment [5].
Consider `N#CC(C#N)=C1C(=O)N(Cc2ccc(Cl)c(Cl)c2)c2ccc(S(=O)(=O)N3CCOCC3)cc21`, for which the IC50 in experiment [1] was greater than 50000 nM; in experiment [2], 592 nM; in experiment [3], 7900 nM; in experiment [4] it was 5350 nM; in experiment [5] it was 1550 nM.
Consider `N#CC(C#N)=C1C(=O)N(Cc2ccccc2)c2ccc(S(=O)(=O)N3CCSCC3)cc21`, for which the IC50 in experiment [1] was greater than 50000 nM; in experiment [2], 151 nM; in experiment [3], 1620 nM; in experiment [4], 4580 nM; in experiment [5] it was 1450 nM.
In the same order, the values of `N#CC(C#N)=C1C(=O)N(Cc2ccc(Cl)c(Cl)c2)c2ccc(S(=O)(=O)N3CCCC3)cc21` are greater than 50000 nM, 468 nM, 471 nM, greater than 10000 nM and 724 nM.
`COc1ccc(CN2C(=O)C(=C(C#N)C#N)c3cc(S(=O)(=O)N4CCCC4)ccc32)cc1`: the IC50 is greater than 50000 nM in experiment [1]; 358 nM in experiment [2]; 443 nM in experiment [3]; 4700 nM in experiment [4]; 673 nM in experiment [5].
In the same order, the values of `O=C1C(=O)N(Cc2ccc(Cl)c(Cl)c2)c2ccc(S(=O)(=O)N3CCOCC3)cc21` are greater than 50000 nM, greater than 15000 nM, 2230 nM, greater than 25000 nM and 1430 nM.
`COc1ccc(CN2C(=O)C(=C(C#N)C#N)c3cc(S(=O)(=O)N4CCSCC4)ccc32)cc1`: the IC50 in experiment [1] is greater than 50000 nM; in experiment [2] it was 188 nM; in experiment [3], 1890 nM; in experiment [4] it was 4300 nM; in experiment [5] it was 1670 nM.
Taken in the same sequence, the figures for `COc1ccc(CN2C(=O)C(=C(C#N)C#N)c3cc(S(=O)(=O)N4CCCCC4)ccc32)cc1` were greater than 50000 nM, 545 nM, 1150 nM, greater than 10000 nM and 1400 nM.
With `N#CC(C#N)=C1C(=O)N(Cc2ccccc2)c2ccc(S(=O)(=O)N3CCOCC3)cc21`, the IC50 in experiment [1] was greater than 50000 nM; in experiment [2], 425 nM; in experiment [3] it was 4470 nM; in experiment [5] it was 4700 nM.
On to `N#CC(C#N)=C1C(=O)N(Cc2ccc(Cl)c(Cl)c2)c2ccc(S(=O)(=O)N3CCCCC3)cc21`, for which the IC50 was greater than 50000 nM in experiment [1]; 568 nM in experiment [2]; 3420 nM in experiment [3]; greater than 10000 nM in experiment [4]; 529 nM in experiment [5].
Taken in the same sequence, the figures for `COc1ccc(CN2C(=O)C(=C(C#N)C#N)c3cc(S(=O)(=O)N4CCC4)ccc32)cc1` were greater than 50000 nM, 197 nM, 471 nM, 4180 nM and 718 nM.
Regarding `O=C1C(=O)N(Cc2ccccc2)c2ccc(S(=O)(=O)N3CCC[C@H]3COc3ccccc3)cc21`, the IC50 was greater than 5000 nM in experiment [2] and 14.5 nM in experiment [5].
For `COc1ccc(CN2C(=O)C(=C(C#N)C#N)c3cc(S(=O)(=O)N4CCOCC4)ccc32)cc1`, the IC50 in experiment [1] was greater than 50000 nM; in experiment [2], 453 nM; in experiment [3], 4100 nM; in experiment [4], 6820 nM; in experiment [5] it was 4630 nM.
In the same order, the values of `O=C1C(=O)N(Cc2ccccc2)c2ccc(S(=O)(=O)N3CCC3)cc21` are greater than 50000 nM, 9830 nM, 132 nM, greater than 10000 nM and 114 nM.
In the same order, the values of `N#CC(C#N)=C1C(=O)N(Cc2ccccc2)c2ccc(S(=O)(=O)N3CCC3)cc21` are greater than 50000 nM, 156 nM, 248 nM, 3300 nM and 323 nM.
On to `N#CC(C#N)=C1C(=O)N(Cc2ccccc2)c2ccc(S(=O)(=O)N3CCCC3)cc21`, for which the IC50 in experiment [1] was greater than 50000 nM; in experiment [2], 241 nM; in experiment [3], 587 nM; in experiment [4], 4700 nM; in experiment [5], 671 nM.
Turning to `N#CC(C#N)=C1C(=O)N(Cc2ccccc2)c2ccc(S(=O)(=O)N3CCCCC3)cc21`, the IC50 in experiment [1] was greater than 50000 nM; in experiment [2] it was 325 nM; in experiment [3], 878 nM; in experiment [5] it was 583 nM.
